Values of other authors, collected in paper PMC7682800 (Arteriosclerosis, Thrombosis, and Vascular Biology, 2020).

Tested on: PAR1
Conditions: oral administration

For `CCOC(=O)N[C@@H]1CC[C@@H]2[C@@H](C1)C[C@H]1C(=O)O[C@H](C)[C@H]1[C@H]2/C=C/c1ccc(-c2cccc(F)c2)cn1` [vorapaxar], the Pharmacodynamic half-life is given as ≥ 4 weeks.
